How the values were obtained:
Experiment in all cases: KinaseProfiler off-target kinase profiling
Type in all cases: biochemical
Details in all cases: 10 μM, ATP near Km
[1] = molecular target: T1, CK1gamma3 (Homo sapiens, UniProt Q9Y6M4)
T1 construct: purchased Millipore, Inc. (KinaseProfiler service)
Experimental: (§1) A representative compound of the invention (Example 48) was tested for off-target kinase activity at a concentration of 10 μM by Millipore, Inc. in their KinaseProfiler™ service against all the kinases available in their full kinase panel. The compound was run in duplicate at a concentration of ATP near the Km for each individual kinase according to Millipore's specifications. The results are shown in Table B. Data are reported as percent of control (POC) and are the average of the two replicates.

[2] = molecular target: T2, CAMK2b (Homo sapiens, UniProt Q13554)
T2 construct: purchased Millipore, Inc. (KinaseProfiler service)
Experimental: as §1

[3] = molecular target: T3, MSSK1 (Homo sapiens, UniProt Q9UPE1)
T3 construct: purchased Millipore, Inc. (KinaseProfiler service)
Experimental: as §1

[4] = molecular target: T4, PKCgamma (Homo sapiens, UniProt P05129)
T4 construct: purchased Millipore, Inc. (KinaseProfiler service)
Experimental: as §1

[5] = molecular target: T5, PTK5 (Homo sapiens, UniProt P42685)
T5 construct: purchased Millipore, Inc. (KinaseProfiler service)
Experimental: as §1

[6] = molecular target: T6, ULK2 (Homo sapiens, UniProt Q8IYT8)
T6 construct: purchased Millipore, Inc. (KinaseProfiler service)
Experimental: as §1

[7] = molecular target: T7, ALK4 (Homo sapiens, UniProt P36896)
T7 construct: purchased Millipore, Inc. (KinaseProfiler service)
Experimental: as §1

[8] = molecular target: T8, HIPK2 (Homo sapiens, UniProt Q9H2X6)
T8 construct: purchased Millipore, Inc. (KinaseProfiler service)
Experimental: as §1

[9] = molecular target: T9, AMPK (A1/B1/G1) (Homo sapiens, UniProt Q13131)
T9 construct: purchased Millipore, Inc. (KinaseProfiler service)
Experimental: as §1

[10] = molecular target: T10, MYLK (Homo sapiens, UniProt Q15746)
T10 construct: purchased Millipore, Inc. (KinaseProfiler service)
Experimental: as §1

[11] = molecular target: T11, IR Activated (Homo sapiens, UniProt P06213)
T11 construct: purchased Millipore, Inc. (KinaseProfiler service)
Experimental: as §1

[12] = molecular target: T12, TLK2 (Homo sapiens, UniProt Q86UE8)
T12 construct: purchased Millipore, Inc. (KinaseProfiler service)
Experimental: as §1

[13] = molecular target: T13, MAPKAP-K2 (Homo sapiens, UniProt P49137)
T13 construct: purchased Millipore, Inc. (KinaseProfiler service)
Experimental: as §1

[14] = molecular target: T14, ROCK-I (Homo sapiens, UniProt Q13464)
T14 construct: purchased Millipore, Inc. (KinaseProfiler service)
Experimental: as §1

[15] = molecular target: T15, Fer (Homo sapiens, UniProt P16591)
T15 construct: purchased Millipore, Inc. (KinaseProfiler service)
Experimental: as §1

[16] = molecular target: T16, IGF-1R Activated (Homo sapiens, UniProt P08069)
T16 construct: purchased Millipore, Inc. (KinaseProfiler service)
Experimental: as §1

[17] = molecular target: T17, PRKG1beta (Homo sapiens, UniProt Q13976)
T17 construct: purchased Millipore, Inc. (KinaseProfiler service)
Experimental: as §1

[18] = molecular target: T18, IRAK1 (Homo sapiens, UniProt P51617)
T18 construct: purchased Millipore, Inc. (KinaseProfiler service)
T18 sequence (P51617 whole entry): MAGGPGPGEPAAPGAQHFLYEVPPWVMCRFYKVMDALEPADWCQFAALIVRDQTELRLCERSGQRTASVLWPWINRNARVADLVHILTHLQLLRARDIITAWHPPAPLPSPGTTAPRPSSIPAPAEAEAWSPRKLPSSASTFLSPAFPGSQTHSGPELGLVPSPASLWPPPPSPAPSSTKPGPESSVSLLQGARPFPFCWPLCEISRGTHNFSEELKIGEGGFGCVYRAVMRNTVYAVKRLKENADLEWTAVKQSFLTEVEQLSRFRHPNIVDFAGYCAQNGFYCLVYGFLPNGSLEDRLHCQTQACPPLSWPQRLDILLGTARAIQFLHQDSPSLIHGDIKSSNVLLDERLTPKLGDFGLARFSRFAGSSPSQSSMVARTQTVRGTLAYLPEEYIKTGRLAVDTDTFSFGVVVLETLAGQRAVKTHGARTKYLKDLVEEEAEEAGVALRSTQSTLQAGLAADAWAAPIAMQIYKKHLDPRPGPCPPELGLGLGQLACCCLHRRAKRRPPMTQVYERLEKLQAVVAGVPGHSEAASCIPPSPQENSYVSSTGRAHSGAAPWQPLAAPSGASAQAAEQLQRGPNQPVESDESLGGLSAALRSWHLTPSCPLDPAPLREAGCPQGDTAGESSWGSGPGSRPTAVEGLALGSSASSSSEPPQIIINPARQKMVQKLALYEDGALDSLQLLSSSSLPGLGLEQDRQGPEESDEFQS
Experimental: as §1

[19] = molecular target: T19, MST1 (Homo sapiens, UniProt Q13043)
T19 construct: purchased Millipore, Inc. (KinaseProfiler service)
T19 sequence (Q13043 whole entry): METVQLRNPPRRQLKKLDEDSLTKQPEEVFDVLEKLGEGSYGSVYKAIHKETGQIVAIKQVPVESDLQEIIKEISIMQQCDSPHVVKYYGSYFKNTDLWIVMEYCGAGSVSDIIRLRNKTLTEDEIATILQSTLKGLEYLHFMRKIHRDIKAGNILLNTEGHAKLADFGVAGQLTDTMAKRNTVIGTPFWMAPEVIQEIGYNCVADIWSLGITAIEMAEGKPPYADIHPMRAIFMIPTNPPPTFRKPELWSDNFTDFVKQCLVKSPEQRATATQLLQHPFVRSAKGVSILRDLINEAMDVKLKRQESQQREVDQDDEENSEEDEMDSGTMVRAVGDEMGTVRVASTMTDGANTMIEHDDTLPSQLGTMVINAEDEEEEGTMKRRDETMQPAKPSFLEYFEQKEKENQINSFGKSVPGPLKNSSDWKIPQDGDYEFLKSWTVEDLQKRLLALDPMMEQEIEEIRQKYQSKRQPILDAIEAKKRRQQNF
Experimental: as §1

[20] = molecular target: T20, TAO3 (Homo sapiens, UniProt Q9H2K8)
T20 construct: purchased Millipore, Inc. (KinaseProfiler service)
T20 sequence (Q9H2K8 whole entry): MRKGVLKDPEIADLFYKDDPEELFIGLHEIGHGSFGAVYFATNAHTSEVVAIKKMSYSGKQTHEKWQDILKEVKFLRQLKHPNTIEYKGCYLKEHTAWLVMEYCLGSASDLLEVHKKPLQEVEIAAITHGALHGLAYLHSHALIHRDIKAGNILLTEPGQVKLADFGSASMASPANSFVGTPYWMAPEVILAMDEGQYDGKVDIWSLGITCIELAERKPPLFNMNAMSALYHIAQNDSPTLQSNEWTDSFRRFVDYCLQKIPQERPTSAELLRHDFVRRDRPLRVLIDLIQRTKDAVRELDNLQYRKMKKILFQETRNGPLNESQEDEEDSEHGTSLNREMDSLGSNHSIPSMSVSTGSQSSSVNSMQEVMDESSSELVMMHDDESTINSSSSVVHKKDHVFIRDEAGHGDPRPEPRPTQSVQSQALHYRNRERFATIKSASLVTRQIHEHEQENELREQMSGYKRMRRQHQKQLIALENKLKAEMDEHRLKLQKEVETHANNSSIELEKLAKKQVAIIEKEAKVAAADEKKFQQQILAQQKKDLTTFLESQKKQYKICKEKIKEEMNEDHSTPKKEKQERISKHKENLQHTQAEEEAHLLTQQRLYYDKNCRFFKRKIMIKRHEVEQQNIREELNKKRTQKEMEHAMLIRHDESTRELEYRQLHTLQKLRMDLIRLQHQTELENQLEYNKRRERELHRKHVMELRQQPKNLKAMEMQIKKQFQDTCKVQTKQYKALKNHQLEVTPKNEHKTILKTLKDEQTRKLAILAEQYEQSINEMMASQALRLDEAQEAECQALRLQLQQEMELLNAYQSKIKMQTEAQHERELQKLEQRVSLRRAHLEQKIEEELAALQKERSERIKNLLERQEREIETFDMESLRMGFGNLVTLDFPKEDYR
Experimental: as §1

[21] = molecular target: T21, Pim-1 (Homo sapiens, UniProt P11309)
T21 construct: purchased Millipore, Inc. (KinaseProfiler service)
Experimental: as §1

[22] = molecular target: T22, GRK6 (Homo sapiens, UniProt P43250)
T22 construct: purchased Millipore, Inc. (KinaseProfiler service)
Experimental: as §1

[23] = molecular target: T23, FGFR3 (Homo sapiens, UniProt P22607)
T23 construct: purchased Millipore, Inc. (KinaseProfiler service)
Experimental: as §1

[24] = molecular target: T24, BTK (Homo sapiens, UniProt Q06187)
T24 construct: purchased Millipore, Inc. (KinaseProfiler service)
T24 sequence (Q06187 whole entry): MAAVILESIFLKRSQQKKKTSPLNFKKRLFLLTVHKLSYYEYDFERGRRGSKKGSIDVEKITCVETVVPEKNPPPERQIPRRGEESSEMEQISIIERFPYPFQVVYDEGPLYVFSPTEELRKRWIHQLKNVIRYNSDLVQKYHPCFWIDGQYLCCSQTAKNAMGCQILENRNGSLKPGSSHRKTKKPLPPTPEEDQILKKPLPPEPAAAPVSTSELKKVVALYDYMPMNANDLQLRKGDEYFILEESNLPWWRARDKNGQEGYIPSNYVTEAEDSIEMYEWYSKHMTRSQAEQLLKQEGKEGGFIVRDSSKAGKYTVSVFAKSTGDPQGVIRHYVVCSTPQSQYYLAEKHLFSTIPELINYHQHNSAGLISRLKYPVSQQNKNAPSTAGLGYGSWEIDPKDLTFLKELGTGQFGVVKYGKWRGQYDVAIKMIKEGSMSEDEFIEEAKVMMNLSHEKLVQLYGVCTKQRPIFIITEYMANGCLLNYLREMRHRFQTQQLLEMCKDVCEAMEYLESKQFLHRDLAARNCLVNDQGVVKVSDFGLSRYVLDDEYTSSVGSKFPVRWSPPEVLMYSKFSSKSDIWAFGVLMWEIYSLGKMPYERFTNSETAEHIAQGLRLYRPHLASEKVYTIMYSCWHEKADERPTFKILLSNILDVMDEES
Experimental: as §1

[25] = molecular target: T25, Abl2 (Homo sapiens, UniProt P42684)
T25 construct: purchased Millipore, Inc. (KinaseProfiler service)
Experimental: as §1

[26] = molecular target: T26, PRKG1alpha (Homo sapiens, UniProt Q13976)
T26 construct: purchased Millipore, Inc. (KinaseProfiler service)
Experimental: as §1

[27] = molecular target: T27, TAK1 (Homo sapiens, UniProt O43318)
T27 construct: purchased Millipore, Inc. (KinaseProfiler service)
Experimental: as §1

[28] = molecular target: T28, AKT2 (Homo sapiens, UniProt P31751)
T28 construct: purchased Millipore, Inc. (KinaseProfiler service)
Experimental: as §1

[29] = molecular target: T29, NEK7 (Homo sapiens, UniProt Q8TDX7)
T29 construct: purchased Millipore, Inc. (KinaseProfiler service)
T29 sequence (Q8TDX7 whole entry): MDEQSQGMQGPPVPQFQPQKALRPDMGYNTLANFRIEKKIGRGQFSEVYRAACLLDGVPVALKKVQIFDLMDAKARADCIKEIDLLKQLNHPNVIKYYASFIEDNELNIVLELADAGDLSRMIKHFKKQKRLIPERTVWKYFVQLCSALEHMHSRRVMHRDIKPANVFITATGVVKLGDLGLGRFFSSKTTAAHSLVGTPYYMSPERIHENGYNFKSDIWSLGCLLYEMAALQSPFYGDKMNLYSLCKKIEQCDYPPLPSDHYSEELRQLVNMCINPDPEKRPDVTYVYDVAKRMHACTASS
Experimental: as §1

[30] = molecular target: T30, NLK (Homo sapiens, UniProt Q9UBE8)
T30 construct: purchased Millipore, Inc. (KinaseProfiler service)
Experimental: as §1

[31] = molecular target: T31, NEK2 (Homo sapiens, UniProt P51955)
T31 construct: purchased Millipore, Inc. (KinaseProfiler service)
Experimental: as §1

[32] = molecular target: T32, PTK6 (Homo sapiens, UniProt Q13882)
T32 construct: purchased Millipore, Inc. (KinaseProfiler service)
Experimental: as §1

[33] = test system: CK1_y
Experimental: as §1

[34] = molecular target: T33, c-RAF (Homo sapiens, UniProt P04049, Y340D/Y341D)
T33 construct: purchased Millipore, Inc. (KinaseProfiler service)
Experimental: as §1

[35] = molecular target: T34, MEK1 (Homo sapiens, UniProt Q02750)
T34 construct: purchased Millipore, Inc. (KinaseProfiler service)
Experimental: as §1

[36] = molecular target: T35, EphA2 (Homo sapiens, UniProt P29317)
T35 construct: purchased Millipore, Inc. (KinaseProfiler service)
Experimental: as §1

[37] = molecular target: T36, DAPK1 (Homo sapiens, UniProt P53355)
T36 construct: purchased Millipore, Inc. (KinaseProfiler service)
T36 sequence (P53355 whole entry): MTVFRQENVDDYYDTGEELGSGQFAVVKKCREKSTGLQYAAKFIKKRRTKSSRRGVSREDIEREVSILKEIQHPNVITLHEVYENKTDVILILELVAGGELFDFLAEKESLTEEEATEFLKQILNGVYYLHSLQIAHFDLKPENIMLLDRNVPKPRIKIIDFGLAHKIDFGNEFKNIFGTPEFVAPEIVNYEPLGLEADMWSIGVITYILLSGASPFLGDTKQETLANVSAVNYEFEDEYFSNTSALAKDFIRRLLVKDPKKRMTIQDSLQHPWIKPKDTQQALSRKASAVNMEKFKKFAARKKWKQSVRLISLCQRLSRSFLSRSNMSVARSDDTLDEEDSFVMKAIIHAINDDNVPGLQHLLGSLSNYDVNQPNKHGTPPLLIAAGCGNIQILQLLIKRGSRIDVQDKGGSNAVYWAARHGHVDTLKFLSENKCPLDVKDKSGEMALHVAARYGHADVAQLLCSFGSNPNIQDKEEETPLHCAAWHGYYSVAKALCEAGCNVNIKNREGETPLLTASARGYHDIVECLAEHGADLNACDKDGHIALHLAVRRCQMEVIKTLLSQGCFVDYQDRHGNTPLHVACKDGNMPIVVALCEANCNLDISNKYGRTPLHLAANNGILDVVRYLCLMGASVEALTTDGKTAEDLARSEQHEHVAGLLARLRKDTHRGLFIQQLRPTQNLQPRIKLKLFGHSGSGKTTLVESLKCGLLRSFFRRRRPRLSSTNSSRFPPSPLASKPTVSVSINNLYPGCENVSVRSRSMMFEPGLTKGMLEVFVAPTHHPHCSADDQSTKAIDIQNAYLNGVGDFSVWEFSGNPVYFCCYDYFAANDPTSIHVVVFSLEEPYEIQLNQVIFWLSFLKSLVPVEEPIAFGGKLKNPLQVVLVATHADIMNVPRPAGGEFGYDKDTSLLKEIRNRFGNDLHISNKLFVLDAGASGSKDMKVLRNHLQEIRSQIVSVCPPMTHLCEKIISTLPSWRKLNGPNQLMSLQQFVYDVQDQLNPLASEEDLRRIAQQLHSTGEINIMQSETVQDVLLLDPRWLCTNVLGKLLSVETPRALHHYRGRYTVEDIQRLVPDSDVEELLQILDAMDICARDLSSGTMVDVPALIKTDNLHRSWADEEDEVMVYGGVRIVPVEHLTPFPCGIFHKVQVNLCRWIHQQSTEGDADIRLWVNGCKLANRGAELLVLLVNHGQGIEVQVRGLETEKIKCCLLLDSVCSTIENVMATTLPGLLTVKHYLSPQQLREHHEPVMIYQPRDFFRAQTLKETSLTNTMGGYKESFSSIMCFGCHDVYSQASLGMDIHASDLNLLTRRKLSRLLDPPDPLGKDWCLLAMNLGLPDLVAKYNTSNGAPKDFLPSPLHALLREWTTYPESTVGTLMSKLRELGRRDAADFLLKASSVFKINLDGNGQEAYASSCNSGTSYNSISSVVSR
Experimental: as §1

[38] = molecular target: T37, Lyn (Homo sapiens, UniProt P07948)
T37 construct: purchased Millipore, Inc. (KinaseProfiler service)
Experimental: as §1

[39] = molecular target: T38, NEK6 (Homo sapiens, UniProt Q9HC98)
T38 construct: purchased Millipore, Inc. (KinaseProfiler service)
Experimental: as §1

[40] = molecular target: T39, EphB2 (Homo sapiens, UniProt P29323)
T39 construct: purchased Millipore, Inc. (KinaseProfiler service)
Experimental: as §1

[41] = molecular target: T40, MLK1 (Homo sapiens, UniProt P80192)
T40 construct: purchased Millipore, Inc. (KinaseProfiler service)
Experimental: as §1

T1 sequence (Q9Y6M4 whole entry): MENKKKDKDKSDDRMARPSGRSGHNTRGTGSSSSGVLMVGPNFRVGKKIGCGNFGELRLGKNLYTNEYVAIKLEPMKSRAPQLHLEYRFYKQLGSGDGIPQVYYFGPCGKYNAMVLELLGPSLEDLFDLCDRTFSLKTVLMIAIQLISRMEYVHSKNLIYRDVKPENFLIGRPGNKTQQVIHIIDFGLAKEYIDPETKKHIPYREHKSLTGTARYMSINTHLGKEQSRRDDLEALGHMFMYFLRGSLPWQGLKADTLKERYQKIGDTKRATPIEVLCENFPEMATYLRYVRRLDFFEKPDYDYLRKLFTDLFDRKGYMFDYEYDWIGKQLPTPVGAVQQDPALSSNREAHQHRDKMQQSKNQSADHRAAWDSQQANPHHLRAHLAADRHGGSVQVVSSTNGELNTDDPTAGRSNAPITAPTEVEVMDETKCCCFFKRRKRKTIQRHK

Avg POC [1]: 110% of control
Avg POC [2]: 90% of control
Avg POC [3]: 94% of control
Avg POC [4]: 93.5% of control
Avg POC [5]: 107.5% of control
Avg POC [6]: 98.5% of control
Avg POC [7]: 88.5% of control
Avg POC [8]: 103% of control
Avg POC [9]: 114.5% of control
Avg POC [10]: 107% of control
Avg POC [11]: 111.5% of control
Avg POC [12]: 98% of control
Avg POC [13]: 109.5% of control
Avg POC [14]: 103.5% of control
Avg POC [15]: 91.5% of control
Avg POC [16]: 102% of control
Avg POC [17]: 105% of control
Avg POC [18]: 100.5% of control
Avg POC [19]: 93.5% of control
Avg POC [20]: 105.5% of control
Avg POC [21]: 134% of control
Avg POC [22]: 101% of control
Avg POC [23]: 103.5% of control
Avg POC [24]: 97.5% of control
Avg POC [25]: 124.5% of control
Avg POC [26]: 106% of control
Avg POC [27]: 104% of control
Avg POC [28]: 148% of control
Avg POC [29]: 107% of control
Avg POC [30]: 108.5% of control
Avg POC [31]: 112% of control
Avg POC [32]: 99.5% of control
Avg POC [33]: 106% of control
Avg POC [34]: 106% of control
Avg POC [35]: 100% of control
Avg POC [36]: 101% of control
Avg POC [37]: 114.5% of control
Avg POC [38]: 108.5% of control
Avg POC [39]: 121.5% of control
Avg POC [40]: 99.5% of control
Avg POC [41]: 115% of control
Compound: COCCN1C[C@@H](NC(=O)Nc2sc(C(C)C)nc2-c2ccccc2)[C@H](c2ccccc2)C1 [Example 48, 1-(2-isopropyl-4-phenylthiazol-5-yl)-3-((3S,4R)-1-(2-methoxyethyl)-4-phenylpyrrolidin-3-yl)urea]

Reference: patent US9828360B2 (Array BioPharma Inc., priority 2012, dated 2017)
